IC50 and Ki data for 23 compounds are collected here from ChEMBL document CHEMBL1909046, “DrugMatrix in vitro pharmacology data”.

In data set [1] the target is Sodium-dependent noradrenaline transporter (Homo sapiens, UniProt P23975). As to the kind of experiment: DRUGMATRIX: Norepinephrine Transporter radioligand binding (ligand: [125I] RTI-55). In kind it is cell membranes, MDCK, Membrane. Conditions: Not Active = under 50% inhibition at 10 µM.
For another data set, the target named is Cytochrome P450 2C9 (Homo sapiens, UniProt P11712). Particulars: bti-tn-5b1-4. Note: in other assays of this panel Not Active means under 50% inhibition at 10 µM.
Sequence of Cytochrome P450 2C9 (P11712 whole entry): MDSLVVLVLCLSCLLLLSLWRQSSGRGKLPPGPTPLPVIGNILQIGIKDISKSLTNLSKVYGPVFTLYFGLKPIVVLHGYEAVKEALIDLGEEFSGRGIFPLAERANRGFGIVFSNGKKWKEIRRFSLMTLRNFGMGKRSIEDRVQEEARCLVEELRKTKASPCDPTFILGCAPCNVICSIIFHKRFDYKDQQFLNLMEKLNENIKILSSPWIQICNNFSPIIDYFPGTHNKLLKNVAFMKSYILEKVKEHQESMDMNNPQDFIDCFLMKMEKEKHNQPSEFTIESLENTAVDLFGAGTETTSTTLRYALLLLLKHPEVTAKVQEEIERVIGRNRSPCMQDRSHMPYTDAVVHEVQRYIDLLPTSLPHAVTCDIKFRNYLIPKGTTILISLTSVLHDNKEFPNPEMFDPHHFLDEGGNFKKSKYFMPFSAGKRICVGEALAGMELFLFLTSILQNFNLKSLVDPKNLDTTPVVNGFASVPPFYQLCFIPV
A further data set has as its target Cytochrome P450 2C19 (Homo sapiens, UniProt P33261). Particulars: bti-tn-5b1-4. Note: in other assays of this panel Not Active means under 50% inhibition at 10 µM.
The target of the next data set is Cytochrome P450 3A4 (Homo sapiens, UniProt P08684). Particulars: bti-tn-5b1-4. Note: in other assays of this panel Not Active means under 50% inhibition at 10 µM.
Sequence of Cytochrome P450 3A4 (P08684 whole entry): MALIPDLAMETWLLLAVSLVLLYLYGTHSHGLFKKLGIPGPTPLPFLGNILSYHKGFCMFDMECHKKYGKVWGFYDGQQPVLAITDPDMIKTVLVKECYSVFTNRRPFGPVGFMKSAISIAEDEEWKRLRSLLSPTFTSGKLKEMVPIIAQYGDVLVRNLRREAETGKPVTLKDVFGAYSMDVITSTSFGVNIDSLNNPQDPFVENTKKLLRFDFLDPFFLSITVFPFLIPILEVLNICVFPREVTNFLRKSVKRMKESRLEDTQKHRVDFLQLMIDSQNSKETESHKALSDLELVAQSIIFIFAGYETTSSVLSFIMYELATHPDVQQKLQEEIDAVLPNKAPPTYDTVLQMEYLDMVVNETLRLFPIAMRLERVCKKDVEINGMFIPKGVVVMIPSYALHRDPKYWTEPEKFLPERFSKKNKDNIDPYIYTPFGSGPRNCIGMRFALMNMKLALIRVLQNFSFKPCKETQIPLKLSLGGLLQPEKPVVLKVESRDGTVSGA
The target of another data set is Estrogen receptor beta (Homo sapiens, UniProt Q92731). Particulars: sf9. Note: in other assays of this panel Not Active means under 50% inhibition at 10 µM.
Sequence of Estrogen receptor beta (Q92731 whole entry): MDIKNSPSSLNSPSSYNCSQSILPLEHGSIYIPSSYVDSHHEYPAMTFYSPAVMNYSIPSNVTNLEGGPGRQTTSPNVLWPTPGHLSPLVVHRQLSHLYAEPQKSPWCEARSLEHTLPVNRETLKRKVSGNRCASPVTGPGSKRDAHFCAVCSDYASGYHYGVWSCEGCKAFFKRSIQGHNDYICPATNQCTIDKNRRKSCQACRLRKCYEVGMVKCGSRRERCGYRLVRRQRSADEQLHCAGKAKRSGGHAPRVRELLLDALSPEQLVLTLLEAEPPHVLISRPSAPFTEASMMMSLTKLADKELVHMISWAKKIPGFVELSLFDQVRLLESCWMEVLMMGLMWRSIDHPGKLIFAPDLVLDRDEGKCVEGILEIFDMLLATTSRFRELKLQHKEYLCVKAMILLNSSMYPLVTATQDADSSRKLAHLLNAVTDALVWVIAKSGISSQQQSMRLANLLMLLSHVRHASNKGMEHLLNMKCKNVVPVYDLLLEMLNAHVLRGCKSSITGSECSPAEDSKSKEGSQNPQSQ
In another data set the target is T1, Estrogen receptor (Homo sapiens, UniProt P03372).
T1 sequence (P03372 whole entry): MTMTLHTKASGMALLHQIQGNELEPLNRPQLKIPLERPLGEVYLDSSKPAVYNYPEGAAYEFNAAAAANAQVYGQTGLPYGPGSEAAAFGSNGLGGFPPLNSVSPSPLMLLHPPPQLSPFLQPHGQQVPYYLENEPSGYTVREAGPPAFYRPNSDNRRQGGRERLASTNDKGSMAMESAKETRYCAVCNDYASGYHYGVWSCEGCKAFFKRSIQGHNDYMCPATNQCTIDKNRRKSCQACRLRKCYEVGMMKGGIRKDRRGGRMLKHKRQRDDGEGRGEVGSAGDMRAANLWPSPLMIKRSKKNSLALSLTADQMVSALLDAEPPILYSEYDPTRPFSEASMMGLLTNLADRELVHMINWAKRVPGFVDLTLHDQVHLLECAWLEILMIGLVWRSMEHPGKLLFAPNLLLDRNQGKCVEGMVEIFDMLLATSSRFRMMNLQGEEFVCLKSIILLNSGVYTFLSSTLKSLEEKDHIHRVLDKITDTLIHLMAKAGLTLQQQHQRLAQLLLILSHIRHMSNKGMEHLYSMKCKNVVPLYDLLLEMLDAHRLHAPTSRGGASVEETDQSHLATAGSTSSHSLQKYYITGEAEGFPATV
Particulars: sf9.

Sequence of Sodium-dependent noradrenaline transporter (P23975 whole entry): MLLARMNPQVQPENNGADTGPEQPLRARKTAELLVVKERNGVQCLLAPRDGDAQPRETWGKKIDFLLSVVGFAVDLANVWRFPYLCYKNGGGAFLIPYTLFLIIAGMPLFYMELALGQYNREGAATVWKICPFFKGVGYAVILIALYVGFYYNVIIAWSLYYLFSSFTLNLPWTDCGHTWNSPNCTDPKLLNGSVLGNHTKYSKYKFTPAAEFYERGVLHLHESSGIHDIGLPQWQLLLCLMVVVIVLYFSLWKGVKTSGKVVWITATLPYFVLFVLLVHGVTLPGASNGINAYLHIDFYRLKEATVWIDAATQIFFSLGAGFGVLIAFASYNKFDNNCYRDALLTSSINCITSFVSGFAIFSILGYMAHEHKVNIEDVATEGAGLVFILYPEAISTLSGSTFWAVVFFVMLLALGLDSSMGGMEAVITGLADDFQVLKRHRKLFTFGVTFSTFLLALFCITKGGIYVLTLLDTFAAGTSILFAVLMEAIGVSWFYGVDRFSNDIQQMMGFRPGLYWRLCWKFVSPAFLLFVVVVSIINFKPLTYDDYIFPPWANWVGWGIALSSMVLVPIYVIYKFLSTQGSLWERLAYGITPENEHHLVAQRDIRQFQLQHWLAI
Sequence of Cytochrome P450 2C19 (P33261 whole entry): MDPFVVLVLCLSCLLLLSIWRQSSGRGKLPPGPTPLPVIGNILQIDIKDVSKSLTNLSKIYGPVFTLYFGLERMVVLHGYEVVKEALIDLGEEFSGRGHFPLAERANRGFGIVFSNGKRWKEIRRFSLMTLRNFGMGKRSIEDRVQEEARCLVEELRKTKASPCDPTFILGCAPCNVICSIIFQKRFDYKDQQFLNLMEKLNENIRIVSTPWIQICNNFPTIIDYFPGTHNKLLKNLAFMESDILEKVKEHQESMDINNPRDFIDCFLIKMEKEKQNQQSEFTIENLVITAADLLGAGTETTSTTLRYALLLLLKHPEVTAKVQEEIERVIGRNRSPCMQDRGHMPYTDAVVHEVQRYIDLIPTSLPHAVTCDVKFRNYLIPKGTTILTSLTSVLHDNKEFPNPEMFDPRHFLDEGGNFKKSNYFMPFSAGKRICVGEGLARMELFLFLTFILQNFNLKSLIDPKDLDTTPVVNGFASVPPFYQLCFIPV

On to `CC(C)(C)NC(=O)[C@@H]1CN(Cc2cccnc2)CCN1C[C@@H](O)C[C@@H](Cc1ccccc1)C(=O)N[C@H]1c2ccccc2C[C@H]1O.O`, for which the IC50 result (in data set [1] (mdck); at Cytochrome P450 2C9; at Cytochrome P450 2C19) was “Not Active” in each case. For the same compound, the Ki entry at Cytochrome P450 2C9 and at Cytochrome P450 2C19 was “Not Active” throughout.

Take `COc1ccc(CCN2CCC(Nc3nc4ccccc4n3Cc3ccc(F)cc3)CC2)cc1` [ASTEMIZOLE]: the IC50 entry at Cytochrome P450 2C9, against Cytochrome P450 2C19 and on Cytochrome P450 3A4 was “Not Active” each time. The Ki result at Cytochrome P450 2C9, on Cytochrome P450 2C19 and on Cytochrome P450 3A4 was “Not Active” in each case.

Take `CN(C)CCCN1c2ccccc2CCc2ccc(Cl)cc21` [CLOMIPRAMINE]: the IC50 entry on Cytochrome P450 2C9, against Cytochrome P450 2C19 and at Cytochrome P450 3A4 was “Not Active” each time. Besides, the Ki entry at Cytochrome P450 2C9, at Cytochrome P450 2C19 and on Cytochrome P450 3A4 was “Not Active” each time.

Turning to `O=C(CCCN1CCC(O)(c2ccc(Cl)cc2)CC1)c1ccc(F)cc1` [HALOPERIDOL], the IC50 entry on Estrogen receptor beta, on Cytochrome P450 2C9, on Cytochrome P450 2C19 and against Cytochrome P450 3A4 was “Not Active” in each case. For the same compound, the Ki entry at Cytochrome P450 2C9, at Cytochrome P450 2C19 and at Cytochrome P450 3A4 was “Not Active” in each case.

Consider `CC1=C(/C=C/C(C)=C/C=C/C(C)=C\C(=O)O)C(C)(C)CCC1` [ISOTRETINOIN], for which the IC50 result (in data set [1] (mdck); against Cytochrome P450 2C9; at Cytochrome P450 2C19; on Cytochrome P450 3A4; at Estrogen receptor) was “Not Active” each time. In addition, the Ki result at Cytochrome P450 2C9, on Cytochrome P450 2C19 and on Cytochrome P450 3A4 was “Not Active” each time.

On to `Nc1nnc(-c2cccc(Cl)c2Cl)c(N)n1` [LAMOTRIGINE], for which the IC50 entry against Estrogen receptor beta, against Cytochrome P450 2C9 and on Cytochrome P450 2C19 was “Not Active” each time. Besides, the Ki result on Cytochrome P450 2C9 and on Cytochrome P450 2C19 was “Not Active” throughout.

In the case of `NCCCC[C@H](N[C@@H](CCc1ccccc1)C(=O)O)C(=O)N1CCC[C@H]1C(=O)O` [LISINOPRIL ANHYDROUS], the IC50 entry (in data set [1] (mdck); against Cytochrome P450 2C9; against Cytochrome P450 2C19) was “Not Active” each time. The Ki entry at Cytochrome P450 2C9 and at Cytochrome P450 2C19 was “Not Active” each time.

Turning to `COS(C)(=O)=O` [METHANESULFONIC ACID METHYL ESTER], the IC50 result (in data set [1] (mdck); against Cytochrome P450 2C9; against Cytochrome P450 2C19; at Cytochrome P450 3A4; on Estrogen receptor) was “Not Active” throughout. Also, the Ki entry at Cytochrome P450 2C9, at Cytochrome P450 2C19 and at Cytochrome P450 3A4 was “Not Active” throughout.

As to `COC(=O)c1ccc(O)cc1` [METHYLPARABEN], the IC50 entry against Estrogen receptor beta, at Cytochrome P450 2C9, at Cytochrome P450 2C19, at Cytochrome P450 3A4 and against Estrogen receptor was “Not Active” throughout. In addition, the Ki entry on Cytochrome P450 2C9, at Cytochrome P450 2C19 and at Cytochrome P450 3A4 was “Not Active” in each case.

For the compound `C[C@](N)(Cc1ccc(O)cc1)C(=O)O` [METYROSINE], the IC50 entry (in data set [1] (mdck); at Cytochrome P450 2C9; against Cytochrome P450 2C19; against Cytochrome P450 3A4; at Estrogen receptor) was “Not Active” in each case. Further, the Ki result on Cytochrome P450 2C9, at Cytochrome P450 2C19 and at Cytochrome P450 3A4 was “Not Active” in each case.

Consider `Clc1ccc(C(c2ccccc2Cl)C(Cl)Cl)cc1` (stereo unspecified) [MITOTANE], for which the IC50 in data set [1] (read-out: IC50) is 819 nM; on Estrogen receptor beta it was “Not Active”; at Cytochrome P450 2C9, “Not Active”; against Cytochrome P450 2C19, “Not Active”; on Cytochrome P450 3A4 it was “Not Active”. Further, the Ki in data set [1] (read-out: Ki) is 812 nM; on Cytochrome P450 2C9, “Not Active”; on Cytochrome P450 2C19, “Not Active”; at Cytochrome P450 3A4, “Not Active”.

Regarding `COC(=O)C1=C(C)NC(C)=C(C(=O)OC)C1c1ccccc1[N+](=O)[O-]` [NIFEDIPINE], the IC50 entry (in data set [1] (mdck); against Estrogen receptor beta; at Estrogen receptor) was “Not Active” each time.

On to `NC(=O)c1ncn([C@@H]2O[C@H](CO)[C@@H](O)[C@H]2O)n1` [RIBAVIRIN], for which the IC50 entry (in data set [1] (mdck); at Cytochrome P450 2C19; on Cytochrome P450 3A4) was “Not Active” throughout. Also, the Ki entry at Cytochrome P450 2C19 and on Cytochrome P450 3A4 was “Not Active” throughout.

`CC[C@H]1OC(=O)[C@H](C)[C@@H](O[C@H]2C[C@@](C)(OC)[C@@H](O)[C@H](C)O2)[C@H](C)[C@@H](O[C@@H]2O[C@H](C)C[C@H](N(C)C)[C@H]2O)[C@](C)(O)C[C@@H](C)/C(=N\OCOCCOC)[C@H](C)[C@@H](O)[C@]1(C)O` [ROXITHROMYCIN]: the IC50 entry (in data set [1] (mdck); at Cytochrome P450 2C9; against Cytochrome P450 2C19; against Cytochrome P450 3A4; against Estrogen receptor) was “Not Active” each time. For the same compound, the Ki entry at Cytochrome P450 2C9, on Cytochrome P450 2C19 and at Cytochrome P450 3A4 was “Not Active” in each case.

As for `CN[C@@H]1[C@@H](O)[C@@H](O[C@@H]2[C@@H](O)[C@H](O[C@H]3OC(CN)=CC[C@H]3N)[C@@H](N)C[C@H]2N)OC[C@]1(C)O` [SISOMICIN], in data set [1] (mdck), the IC50 result was “Not Active”.

`Cc1cc(NS(=O)(=O)c2ccc(N)cc2)no1` [SULFAMETHOXAZOLE]: the IC50 entry (in data set [1] (mdck); against Estrogen receptor beta) was “Not Active” each time.

Regarding `Nc1ccc(S(N)(=O)=O)cc1` [SULFANILAMIDE], the IC50 entry (in data set [1] (mdck); against Estrogen receptor beta) was “Not Active” each time.

Regarding `CC(C)(C)NCC(O)c1cc(O)cc(O)c1` (stereo unspecified) [TERBUTALINE], the IC50 result (in data set [1] (mdck); on Cytochrome P450 2C9; against Cytochrome P450 2C19; against Cytochrome P450 3A4) was “Not Active” in each case. The inhibition constant Ki result on Cytochrome P450 2C9, at Cytochrome P450 2C19 and on Cytochrome P450 3A4 was “Not Active” each time.

On to `NC(CO)(CO)CO` [TROMETHAMINE], for which the IC50 entry (in data set [1] (mdck); on Cytochrome P450 2C9; on Cytochrome P450 2C19; on Cytochrome P450 3A4; on Estrogen receptor) was “Not Active” in each case. In addition, the Ki entry on Cytochrome P450 2C9, at Cytochrome P450 2C19 and at Cytochrome P450 3A4 was “Not Active” in each case.

As to `CN1[C@@H]2CC[C@H]1C[C@@H](OC(=O)c1c[nH]c3ccccc13)C2` [TROPISETRON], the IC50 result (in data set [1] (mdck); on Estrogen receptor beta; against Cytochrome P450 2C9; against Cytochrome P450 2C19; against Cytochrome P450 3A4) was “Not Active” throughout. Moreover, the Ki result at Cytochrome P450 2C9, on Cytochrome P450 2C19 and on Cytochrome P450 3A4 was “Not Active” each time.

As to `COc1cc(C(=O)NC2CCCNC2)cc(OC)c1OC` (stereo unspecified) [TROXIPIDE], the IC50 entry (in data set [1] (mdck); against Estrogen receptor beta; at Cytochrome P450 2C9; against Cytochrome P450 2C19; against Cytochrome P450 3A4) was “Not Active” each time. Moreover, the Ki result on Cytochrome P450 2C9, at Cytochrome P450 2C19 and on Cytochrome P450 3A4 was “Not Active” in each case.

As for `COc1ccc(C(CN(C)C)C2(O)CCCCC2)cc1` (stereo unspecified) [VENLAFAXINE], the IC50 entry on Cytochrome P450 2C9, against Cytochrome P450 2C19 and on Cytochrome P450 3A4 was “Not Active” in each case. The Ki result at Cytochrome P450 2C9, at Cytochrome P450 2C19 and at Cytochrome P450 3A4 was “Not Active” throughout.

In the case of `COC(=O)[C@@H]1[C@H]2C[C@H]3c4[nH]c5ccccc5c4CCN3C[C@@H]2CC[C@@H]1O` [YOHIMBINE], the IC50 entry (in data set [1] (mdck); on Estrogen receptor beta; against Estrogen receptor) was “Not Active” each time.

As a reminder, the IC50 is the concentration needed to halve the response being measured. As a reminder, the Ki is a dissociation constant, usually derived from enzyme kinetics or from competition with a known ligand.
